Read-outs that look alike come from different tables or passages of the source.
Assays:
[1] = biological target: [^3 H]-Spiroperidol binding (receptor); test: Inhibition of [3H]-spiroperidol binding (receptor assay, Grigoriadis and Seeman)
Description: (§1) The compounds of Formula I are valuable dopaminergic agents. […] Thus, the compounds of Formula I were tested for their ability to inhibit locomotor activity in mice according to the assay described by J. R. McLean, et al, Pharmacoloqy, Biochemistry and Behavior, Volume 8, pages 97-99 (1978); for their ability to inhibit [^3 H]-spiroperidol binding in a receptor assay described by D. Grigoriadis and P. Seeman, Journal of Neurochemistry, Volume 44, Pages 1925-1935 (1985); and for their ability to inhibit dopamine synthesis in rats according to the protocol described by J. R. Walters and R. H. Roth, Naunyn-Schmiedeberg's Archives of Pharmacology, Volume 296, pages 5-14 (1976). The above test methods are incorporated herein by reference. The data in the table show the dopaminergic activity of representative compounds of Formula I. Additionally, compounds of Formula I are ligands for the sigma opiate binding site. The data in the table show the inhibition of [^3 H]DTG ([…], a sigma ligand) binding by representative compounds of Formula I, according to the method of E. Weber, et al. Proceedings of the National Academy of Sciences, USA, Volume 83, Pages 8784-8788 (1986).

mice = test: Inhibition of locomotor activity in mice (McLean et al.); assay type: in vivo; settings: Mus musculus, read-out: Inhibition of Locomotor Activity in Mice ED50
Description: as §1

[2] = system: Brain Striatal Dopamine Synthesis; test: Inhibition of brain striatal dopamine synthesis in rats (Walters and Roth); assay type: in vivo; settings: Rattus norvegicus, IP, read-out: Effects on Brain Striatal Dopamine Synthesis in Rats, inhibition
Description: as §1

[3] = biological target: sigma opiate binding site; test: Inhibition of [3H]DTG (ditoluoylguanidine) binding (Weber et al.)
Description: as §1

Row | SMILES | IC50 [1] [nM] | IC50 [3] [nM] | ED50 (mice; mice, IP) [mg/kg] | inhibition at 10 mg/kg [2] [%] | ED50 (mice; ip) [mg/kg]
1 | C1=C(c2cccnc2)CCC(N2CCN(c3ccccn3)CC2)C1 (racemic) [Example 1, (±)-1-(2-Pyridinyl)-4-[4-(3-pyridinyl)-3-cyclohexen-1-yl]piperazine] | 188 |  | 0.1 | 100 | 
2 | C1=C(c2ccccn2)CCC(N2CCN(c3ccccn3)CC2)C1 (racemic) [Example 1a, (±)-1-(2-Pyridinyl)-4-[4-(2-pyridinyl)-3-cyclohexen-1-yl]-piperazine] | 1180 |  | 0.9 | 75 | 
3 | C1=C(c2ccccn2)CCC(CCN2CCN(c3ccccn3)CC2)C1 (racemic) [Example 1b, (±)-1-(2-Pyridinyl)-4-[2-[4-(2-pyridinyl)-3-cyclohexen-1-yl]ethyl]piperazine] | 128 | 39 | 0.4 |  | 
4 | C1=C(c2cccs2)CCC(N2CCN(c3ccccn3)CC2)C1 (racemic) [Example 2, (±)-1-(2-Pyridinyl)-4-[4-(2-thienyl)-3-cyclohexen-1-yl]-piperazine] | 352 |  | 9.3 |  | 
5 | C1=C(c2ccccc2)CCN(CCC2CC=C(c3cccs3)CC2)C1 (racemic) [Example 2g, (±)-1,2,3,6-Tetrahydro-4-phenyl-1-[2-[4-(2-thienyl)-3-cyclohexen-1-yl]ethyl]pyridine] | 32 | 2 |  |  | 3
6 | C1=C(c2ccccc2)CCN(C2CC=C(c3ccccn3)CC2)C1 (racemic) [Example 3, (±)-2-[4-(3,6-Dihydro-4-phenyl-1(2H)-pyridinyl)-1-cyclohexen-1-yl]pyridine] | 296 |  |  |  | 2

Second part, led by results:

Row | IC50 [1] [nM] | IC50 [3] [nM] | SMILES | ED50 (mice; mice, IP) [mg/kg] | inhibition at 10 mg/kg [2] [%] | ED50 (mice; ip) [mg/kg]
7 | 599 |  | C1=C(c2ccccc2)CCC(N2CCN(c3ccccn3)CC2)C1 (racemic) [Example 2a, (±)-1-(4-Phenyl-3-cyclohexen-1-yl)-4-(2-pyridinyl)piperazine] | 1 |  | 
8 | 2430 |  | C1=C(c2cccs2)CCC(CN2CCN(c3ccccn3)CC2)C1 (racemic) [Example 2b, (±)-1-(2-Pyridinyl)-4-[[4-(2-thienyl)-3-cyclohexen-1-yl]methyl]-piperazine] | < 30 |  | 
9 |  | 39 | C1=C(c2cccs2)CCC(CCN2CCN(c3ccccn3)CC2)C1 (racemic) [Example 2c, (±)-1-(2-Pyridinyl)-4-[2-[4-(2-thienyl)-3-cyclohexen-1-yl]ethyl]-piperazine] | 8.4 | 46 | 
10 | 409 | 23 | C1=C(c2ccccc2)CCC(CCN2CCN(c3ccccn3)CC2)C1 (racemic) [Example 2d, (±)-1-[2-(4-Phenyl-3-cyclohexen-1-yl)ethyl]-4-(2-pyridinyl)piperazine] | 1.9 | 48 | 
11 | 365 | 20 | Fc1ccc(C2=CCC(CCN3CCN(c4ccccn4)CC3)CC2)cc1 (racemic) [Example 2e, (±)-1-[2-[4-(4-Fluorophenyl)-3-cyclohexen-1-yl]ethyl]-4-(2-pyridinyl)piperazine] | 2.9 | 23 | 
12 | 267 | 98 | C1=C(c2nccs2)CCC(CCN2CCN(c3ccccn3)CC2)C1 (racemic) [Example 2f, (±)-1-(2-Pyridinyl)-4-[2-[4-(2-thiazolyl)-3-cyclohexen1-yl]-ethyl]piperazine] | 0.8 | 77 | 

Source: patent US4975445A, “Substituted cyclohexenes as central nervous system agents” (priority 1989, dated 1990)
